Source: US8653012B2, “Mutual solvent-soluble and/or alcohol blends-soluble particles for viscoelastic surfactant fluids” (Baker Hughes Incorporated, priority 2008, dated 2014)

Assays:
[1] = Water solubility of dicarboxylic acid agents; assay type: physicochemical
From the text: (§1) Two different dicarboxylic particles were used in the Examples herein. […] LCA141 is dodecanedioic acid (DDDA) (Agent B in U.S. Pat. No. 6,994,166), also from INVISTA.

[2] = Solubility of dicarboxylic acid agents in various solvents; assay type: physicochemical; settings: 183° F. (84° C.)
From the text: as §1

- Water solubility ([1]; 70° F. (21° C.)): Very low (70° F. (21° C.))
- Water solubility ([1]; 140° F. (60° C.)): 0.012% (140° F. (60° C.))
- Water solubility ([1]; 176° F. (80° C.)): 0.01% (176° F. (80° C.))
- Water solubility ([1]; 212° F. (100° C.)): 0.04% (212° F. (100° C.))
- Solubility, % ([2]; Blend C (50:50 v/v isopropanol and oxyalkylated alcohol mixture)): 6.99 (183° F. (84° C.)) %
- Solubility, % ([2]; Ethylene glycol monobutyl ether (EGMBE)): 5.89 (183° F. (84° C.)) %
- Solubility, % ([2]; Isopropanol): >9.73 (183° F. (84° C.)) %
Compound: O=C(O)CCCCCCCCCCC(=O)O [LCA141, dodecanedioic acid]
